Test results published in patent US9856511B2, “Protease deubiquitinating inhibitor screening” (priority 2011, dated 2018).

Columns and labels:
[1] = system: FaDu head and neck carcinoma; assay: FaDu head and neck carcinoma xenograft in SCID mice; assay type: in vivo; details: plasma
Method: In order to investigate the effect of b-AP15 on tumor growth in vivo, the compound was administered to mice bearing either a human tumor or mouse xenografts. FaDu head and neck carcinoma were chosen as a SCID mouse xenograft both as a model for a p53mut tumor and since this model is suitable for studies using circulating cell death biomarkers (30). Significant inhibition of FaDu tumor growth was observed following daily treatment with b-AP15 (treated/control tumor volume, T/C=0.4, p=<0.001). Similarly b-AP15 (day on/2 day off schedule) inhibited tumor growth in C57BL/6J mice bearing lung carcinomas (T/C=0.16, p=<0.01). […] To examine whether b-AP15 promotes tumor cell death in vivo, plasma levels of cytokeratin-18 (CK18) were analyzed. […] To investigate the ability of b-AP15 to inhibit proteasome deubiquitination in vivo, accumulation of poly-ubiquitin conjugates was analyzed by means of antibodies specific for K48 linked polyubiquitin chains. Histological analysis of treated tumors confirmed the accumulation of poly-ubiquitin conjugates. […]
Animal experiments were conducted in full accordance with Swedish governmental statutory regulations on animal welfare under permission from local ethical committees. […] All mice were monitored and weighed daily. […] After injection, tumor growth was measured daily with calipers and the tumor volume calculated by the formula L=W^2=0.44. […]

19S RP = molecular target: T1, 19S RP (Homo sapiens, UniProt P54578+Q9Y5K5); assay: De-ubiquitinase activity assay, purified 19S RP with ubiquitin-AMC; assay type: biochemical
T1 construct: purchased Boston Biochem E-366
Method: In vitro proteasome activity assays were performed in black 96-well microtiter plates using human 20S proteasome (Boston Biochem) in reaction buffer (25 mM Hepes, 0.5 mM EDTA, 0.03% SDS) with Suc-LLVY-AMC, Z-LLE-AMC or Boc-LRRAMC used as substrates for proteasome activity. De-ubiquitinase activity assays were performed with human 19S RP (Boston Biochem) with ubiquitin-AMC as substrate. For xenograft studies a 100-μl-cell suspension containing 1×10^6 FaDu head-neck or 2×10^5 Lewis Lung Carcinoma (LLC) cells were injected subcutaneously into the flank of SCID or C57BL/6J mice. Upon tumor take mice were randomized into control or treatment groups and administered with 5 mg kg^−1 b-AP15 or vehicle. In vivo levels of apoptosis and cell death were determined from the detection of caspase cleaved and total levels of cytokeratin-18 in plasma using M30 Apoptosense® and M65 ELISA®s assays (Peviva). […]
In vitro proteasome activity assays using 20S CP (2 nM) (Boston Biochem) were performed at 37° C. in 100-μl reaction buffer (25 mM Hepes, 0.5 mM EDTA, 0.03% SDS). […] Fluorescence was monitored using Wallac Multilabel counter or Tecan Infinite M1000 equipped with 360 nm excitation and 460 nm emission filters. […]
Dose response of b-AP15 (FIG. 11a): Purified 19S proteasomes (5 nM) were treated with indicated concentrations of b-AP15, and DUB activity was determined by detection of Ub-AMC cleavage. […]

SMILES: C=CC(=O)N1C/C(=C\c2ccc([N+](=O)[O-])cc2)C(=O)/C(=C/c2ccc([N+](=O)[O-])cc2)C1 [b-AP15]
- levels of human CK18 derived from FaDu tumors in the circulation ([1]; total CK18, p=0.01): significant increase
- levels of caspase cleaved CK18 (CK18-Asp396) in circulation ([1]; compared with total levels): increased moderately
- effect of reduced glutathione on inhibition of 19S DUB activity (19S RP; b-AP15 10 μM mixed with GSH 2 mM, 19S 5 nM): did not reduce b-AP15 mediated inhibition
- reversibility of inhibition of 19S DUB activity (19S RP; recovery of activity after 50-fold rapid dilution of enzyme/b-AP15 complex): reversible inhibitor
